Data taken from PubChem BioAssay AID248 (DTP/NCI, 2004).
Where “and” joins values, the source holds several entries; their conditions need not be identical. Equal values may be shown once. Inconclusive results and toxic doses are left out. Rule as the data show it: active = T/C of 150% or more; inactive = T/C below 125%.

System: L1210 leukemia ip in BDF1 mice, survival T/C
Assay: NCI In Vivo Anticancer Drug Screen. Data for tumor model L1210 Leukemia (intraperitoneal) in B6D2F1 (BDF1) mice
Settings: endpoint: mean survival time, higher = longer survival
Method in brief: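 Mice bearing the transplanted tumor received compound or vehicle. Survival of the treated group was divided by that of the vehicle-treated control group to give the ratio.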

[1] = dose: 100.0 mg/kg/injection, schedule: Q01DX009 (ip), vehicle: Klucel (hydroxypropylcellulose) (HPC)
[2] = dose: 100.0 mg/kg/injection, schedule: Q04DX003 (ip), vehicle: Klucel (hydroxypropylcellulose) (HPC)
[3] = dose: 200.0 mg/kg/injection, schedule: Q01DX009 (ip), vehicle: Klucel (hydroxypropylcellulose) (HPC)
[4] = dose: 200.0 mg/kg/injection, schedule: Q04DX003 (ip), vehicle: Klucel (hydroxypropylcellulose) (HPC)
[5] = dose: 400.0 mg/kg/injection, schedule: Q01DX009 (ip), vehicle: Klucel (hydroxypropylcellulose) (HPC)
[6] = dose: 400.0 mg/kg/injection, schedule: Q04DX003 (ip), vehicle: Klucel (hydroxypropylcellulose) (HPC)
[7] = dose: 25.0 mg/kg/injection, schedule: Q01DX009 (ip), vehicle: saline
[8] = dose: 25.0 mg/kg/injection, schedule: Q04DX003 (ip), vehicle: saline
[9] = dose: 100.0 mg/kg/injection, schedule: Q04DX003 (ip), vehicle: saline
[10] = dose: 200.0 mg/kg/injection, schedule: Q04DX003 (ip), vehicle: saline
[11] = dose: 400.0 mg/kg/injection, schedule: Q04DX003 (ip), vehicle: saline
[12] = dose: 50.0 mg/kg/injection, schedule: Q01DX009 (ip), vehicle: saline
[13] = dose: 100.0 mg/kg/injection, schedule: Q01DX009 (ip), vehicle: saline
[14] = dose: 200.0 mg/kg/injection, schedule: Q01DX009 (ip), vehicle: saline

Measured: T/C

Cc1cc(C)c(N(C)C(=O)CCC(=O)O)c(Br)c1
inactive: [1] 89 % of control | [2] 101 % of control | [3] 101 % of control | [4] 100 % of control | [5] 101 % of control | [6] 94 % of control

C[N+](C)(C)CCOC(=O)c1cccc(CBr)c1CBr
inactive: dose: 6.25 mg/kg/injection, schedule: Q01DX009 (ip), vehicle: saline 103 % of control | dose: 6.25 mg/kg/injection, schedule: Q04DX003 (ip), vehicle: saline 104 % of control | dose: 12.5 mg/kg/injection, schedule: Q01DX009 (ip), vehicle: saline 97 % of control | dose: 12.5 mg/kg/injection, schedule: Q04DX003 (ip), vehicle: saline 98 % of control | [7] 97 % of control | [8] 104 % of control

Cc1nc2cc(N=Cc3ccc(N(CCCl)CCCl)cc3)ccc2n1C
inactive: dose: 68.8 mg/kg/injection, schedule: Q04DX002 (ip), vehicle: Klucel (hydroxypropylcellulose) (HPC) 104 % of control | dose: 137.5 mg/kg/injection, schedule: Q04DX002 (ip), vehicle: Klucel (hydroxypropylcellulose) (HPC) 104 % of control | dose: 275.0 mg/kg/injection, schedule: Q04DX002 (ip), vehicle: Klucel (hydroxypropylcellulose) (HPC) 104 % of control

O=C(CC(=O)c1ccco1)c1ccccc1
inactive: dose: 100.0 mg/kg/injection, schedule: Q01DX001 (ip), vehicle: saline 102 % of control | dose: 200.0 mg/kg/injection, schedule: Q01DX001 (ip), vehicle: saline 100 % of control | dose: 400.0 mg/kg/injection, schedule: Q01DX001 (ip), vehicle: saline 96 % of control

COc1ccccc1NC(=O)c1ccccc1F
inactive: [1] 95 % of control | [3] 95 % of control | [5] 101 % of control

OC(CNc1ccccc1)CN1CCOCC1 (stereo not given)
inactive: dose: 100.0 mg/kg/injection, schedule: Q01DX001 (ip), vehicle: other 101 % of control | [9] 100 % of control | dose: 200.0 mg/kg/injection, schedule: Q01DX001 (ip), vehicle: other 96 % of control | [10] 94 % of control | dose: 400.0 mg/kg/injection, schedule: Q01DX001 (ip), vehicle: other 105 % of control | [11] 94 % of control

O=C(Nc1c(Cl)cc2c(c1Cl)Cc1cc([N+](=O)[O-])ccc1-2)C(Cl)Cl
inactive: dose: 100.0 mg/kg/injection, schedule: Q01DX001 (ip), vehicle: carboxymethylcellulose (CMC) 98 % of control | dose: 200.0 mg/kg/injection, schedule: Q01DX001 (ip), vehicle: carboxymethylcellulose (CMC) 102 % of control | dose: 400.0 mg/kg/injection, schedule: Q01DX001 (ip), vehicle: carboxymethylcellulose (CMC) 98 % of control

CC(C)(C)C1CCC(N=C(N)CS)CC1 (stereo not given)
inactive: dose: 1.5 mg/kg/injection, schedule: Q01DX001 (ip), vehicle: carboxymethylcellulose (CMC) 98 % of control | dose: 3.0 mg/kg/injection, schedule: Q01DX001 (ip), vehicle: carboxymethylcellulose (CMC) 98 % of control | dose: 6.0 mg/kg/injection, schedule: Q01DX001 (ip), vehicle: carboxymethylcellulose (CMC) 95 % of control

CC1=CC(=O)N(CO)C1=O
inactive: dose: 25.0 mg/kg/injection, schedule: Q04DX003 (ip), vehicle: water 94 % of control | dose: 50.0 mg/kg/injection, schedule: Q04DX003 (ip), vehicle: water 98 % of control

CS(=O)(=O)N(CC(=O)O)Cc1ccc(Cl)c(Cl)c1
inactive: dose: 100.0 mg/kg/injection, schedule: Q01DX009 (ip), vehicle: other 100 % of control | dose: 100.0 mg/kg/injection, schedule: Q04DX003 (ip), vehicle: other 97 % of control | dose: 200.0 mg/kg/injection, schedule: Q01DX009 (ip), vehicle: other 104 % of control | dose: 200.0 mg/kg/injection, schedule: Q04DX003 (ip), vehicle: other 97 % of control | dose: 400.0 mg/kg/injection, schedule: Q01DX009 (ip), vehicle: other 96 % of control | dose: 400.0 mg/kg/injection, schedule: Q04DX003 (ip), vehicle: other 95 % of control

C=C[CH2][Sn]([c]1ccccc1)([c]1ccccc1)[c]1ccccc1
inactive: [12] 92 % of control and 101 % of control | [13] 96 % of control and 101 % of control | dose: 100.0 mg/kg/injection, schedule: Q04DX003 (ip), vehicle: saline with Tween-80 91 % of control | [14] 96 % of control and 97 % of control

CC(=O)CC(=O)Nc1cc(Cl)ccc1C
inactive: [2] 92 % of control | [3] 92 % of control | [4] 97 % of control | [6] 92 % of control

CC(C)CCc1c(N)nc(N)nc1N
inactive: dose: 25.0 mg/kg/injection, schedule: Q04DX003 (ip), vehicle: Klucel (hydroxypropylcellulose) (HPC) 93 % of control | dose: 50.0 mg/kg/injection, schedule: Q04DX003 (ip), vehicle: Klucel (hydroxypropylcellulose) (HPC) 96 % of control

CCOC(=O)C1OC1(C)C (stereo not given)
inactive: dose: 100.0 mg/kg/injection, schedule: Q04DX002 (ip), vehicle: Klucel (hydroxypropylcellulose) (HPC) 88 % of control | dose: 200.0 mg/kg/injection, schedule: Q04DX002 (ip), vehicle: Klucel (hydroxypropylcellulose) (HPC) 103 % of control | dose: 400.0 mg/kg/injection, schedule: Q04DX002 (ip), vehicle: Klucel (hydroxypropylcellulose) (HPC) 95 % of control

CCCCCCC1CC1
inactive: [12] 94 % of control | [13] 102 % of control | [14] 102 % of control

CC(=O)OCCOc1ccc(Cl)cc1
inactive: dose: 100.0 mg/kg/injection, schedule: Q04DX002 (ip), vehicle: saline 107 % of control | dose: 200.0 mg/kg/injection, schedule: Q04DX002 (ip), vehicle: saline 96 % of control | dose: 400.0 mg/kg/injection, schedule: Q04DX002 (ip), vehicle: saline 107 % of control

O=C(CCCN1CCC(O)(c2ccc(Cl)cc2)CC1)c1ccc(F)cc1
inactive: dose: 1.25 mg/kg/injection, schedule: Q01DX009 (ip), vehicle: saline 90 % of control | dose: 2.5 mg/kg/injection, schedule: Q01DX009 (ip), vehicle: Klucel (hydroxypropylcellulose) (HPC) 92 % of control | dose: 2.5 mg/kg/injection, schedule: Q01DX009 (ip), vehicle: saline 100 % of control | dose: 2.5 mg/kg/injection, schedule: Q04DX003 (ip), vehicle: saline 114 % of control | dose: 5.0 mg/kg/injection, schedule: Q01DX009 (ip), vehicle: Klucel (hydroxypropylcellulose) (HPC) 95 % of control | dose: 5.0 mg/kg/injection, schedule: Q01DX009 (ip), vehicle: saline 113 % of control | dose: 5.0 mg/kg/injection, schedule: Q04DX003 (ip), vehicle: saline 101 % of control | dose: 10.0 mg/kg/injection, schedule: Q01DX009 (ip), vehicle: Klucel (hydroxypropylcellulose) (HPC) 100 % of control | dose: 10.0 mg/kg/injection, schedule: Q01DX009 (ip), vehicle: saline 121 % of control | dose: 10.0 mg/kg/injection, schedule: Q04DX003 (ip), vehicle: saline 124 % of control | dose: 20.0 mg/kg/injection, schedule: Q01DX009 (ip), vehicle: Klucel (hydroxypropylcellulose) (HPC) 111 % of control | dose: 20.0 mg/kg/injection, schedule: Q01DX009 (ip), vehicle: saline 90 % of control | dose: 20.0 mg/kg/injection, schedule: Q04DX003 (ip), vehicle: saline 101 % of control | dose: 40.0 mg/kg/injection, schedule: Q01DX009 (ip), vehicle: saline 90 % of control | dose: 40.0 mg/kg/injection, schedule: Q04DX003 (ip), vehicle: saline 101 % of control | dose: 80.0 mg/kg/injection, schedule: Q04DX003 (ip), vehicle: Klucel (hydroxypropylcellulose) (HPC) 110 % of control | dose: 160.0 mg/kg/injection, schedule: Q04DX003 (ip), vehicle: Klucel (hydroxypropylcellulose) (HPC) 106 % of control

Nc1cc(Cl)ccc1[N+](=O)[O-]
inactive: [9] 103 % of control | [10] 95 % of control | [11] 96 % of control

O=C(O)/C=C\c1c[nH]c2nccnc12
inactive: [7] 101 % of control | [8] 117 % of control | [12] 88 % of control | dose: 50.0 mg/kg/injection, schedule: Q04DX003 (ip), vehicle: saline 115 % of control | [9] 103 % of control and 106 % of control
